# Experimental data: patent US7244712B2, “Aminoglycoside antibiotics and methods of using same” (priority 2004, dated 2007)
# Entries after “also recorded” stand apart in the source; their conditions may differ.
# Assays:
# [1] = test system: E. coli S30 extract, containing 70S ribosomes; test: In vitro protein translation (CAT mRNA, 35S methionine incorporation); type: biochemical; details: quantitation of gel bands, read-out: IC50, concentration producing 50% inhibition of translation
# Description: Protein translation was performed from chloramphenicol acetyl transferase (CAT) mRNA. […] A commercial E. coli ribosomal suspension was supplemented with an E. coli extract containing the required elements for translation. These include translation factors, tRNAs, and aminoacyl tRNA synthases. Plasmid, T7 RNA polymerase and amino acids were added to the reaction mixture, and both transcription and translation steps were performed in the same vial. The effects of the aminoglycosides on the translation process were evaluated by measuring the incorporation of ^35S methionine in the translated chloramphenicol acetyl transferase protein.
# In vitro translation was performed by using PROTEINscript™-PRO (Ambion) kit. […] Reaction mixtures contained appropriate concentrations of antibiotic (neomycin B, D- and L-neamine). The protein was translated from CAT mRNA, transcribed from control DNA template containing CAT gene under control of the T7 promotor. The product, ˜25 kDa chloramphenicol acetyl transferase, was labeled during translation with 1 μCi ^35S methionine (New England Nuclear) per reaction (no cold methionine was added).
# Following the translation, the samples were analyzed by electrophoresis on 4-20% SDS mini-gels (Invitrogen) for 1.5 h at 120V. Gels were fixed with 40% methanol/10% acetic acid and exposed to Molecular Dynamics phosphoimager plates, which were read on a Personal FX phosphoimager (Bio-Rad) and quantitated using QuantityOne™ software.
# [2] = test system: E. coli (ATCC 25922) transformed with the plasmid pMM, bearing the APH(3')IIa gene; test: Antibiotic activity disk assay, kanamycin/neomycin resistant E. coli; type: cell-based; details: FIG. 7B
# Description: (§1) E. coli (ATCC 25922) and P. aeruginosa (ATCC 27853) (BD Bioscience) were inoculated in 3 mL of the medium 2 (U.S. Pharmacopia), containing 6 g peptone, 3 g yeast extract and 1.5 g beef extract per 1 L, pH 6.6, and were grown in a shaker for 6 h at 37° C. until an OD 560=0.6-0.8 was reached.
# For the antibiotic disk assay, […] of each bacterial inoculum was mixed with 10 mL of melted agar (1.5% medium 2 agar, BD Bioscience) at 50-55° C. and poured onto 100 mm Petri dishes. Sterile Whatmann 3 MM 5 mm paper disks were soaked with antibiotic solutions and allowed to dry. The disks were positioned evenly on the surface of bacterial-inoculated solid agar and the plates were incubated at 37° C. for 1-2 days. MIC and bactericide index measurements.
# [3] = test system: E. coli (ATCC 25922) transformed with pMM plasmid bearing APH(3')IIa; test: MIC, kanamycin/neomycin resistant E. coli; type: cell-based; details: growth inhibition greater than 90%
# Description: as §1
# (§2) Minimal inhibitory concentrations (MIC) were measured according to the published method (Greenberg, W. A., Priestley, E. S., Sears, P. S., Alper, P. B., Rosenbohm, C., Hendrix, M., Hung, S.-C., & Wong, C.-H. (1999) J. Am. Chem. Soc. 121, 6527-6541). E. coli (ATCC 25922) (both wild type and pMM-transformed) and P. aeruginosa (ATCC 27853) were grown in medium 2 to an optical density OD 600 of 0.6-0.8. The inoculi were diluted to OD 600 ˜0.1 in medium 2 and 1 mL of the culture was placed in 13 mL test tubes. The desired concentrations of antibiotic were added from stock solutions. […] The absorbance at 600 nm of each sample was read and MIC was taken as the lowest antibiotic concentration inhibiting bacterial growth by greater than 90%.
# [4] = test system: P. aeruginosa (ATCC 27853); test: MIC, P. aeruginosa; type: cell-based; details: growth inhibition greater than 90%
# Description: as §2
# 80S ribosome = test: Fluorescence anisotropy binding to 80S ribosomes; design: species or system yeast (S. cerevisiae); details: competition with CRP, yeast ribosomes; read-out: Dissociation constant (KD) with 80S ribosome
# Description: (§3) After establishing the lack of stereospecificity in the binding of aminoglycosides to the A-site RNA constructs (FIG. 9A-C) where the binding affinity, KD, is about 0.1 μM to about 100 μM, the stereospecificity of aminoglycoside binding to intact ribosomes was determined. Both yeast and E. coli ribosomes were prepared and aminoglycoside binding was measured using fluorescence anisotropy methods. For example, fluorescence anisotropy methods recited in Wang, Y., and Rando, R. R. Chem. Biol. (1995) 2, 281-290; and Wang, Y., Hamasaki, K., and Rando, R. R. Biochemistry (1997) 36,768-779. CRP was used as the binding probe. […] Binding data reported herein for aminoglycoside compounds with eukaryotic yeast ribosomes are similar to binding data for said aminoglycoside compounds with ribosoimes in bacteria and with eukaryotic A-site rRNA constructs.
# (§4) 5-Carboxytetramethylrhodamine-labeled paromomycin (CRP) and tobramycin (CRT) concentrations were determined spectroscopically at 550 nm using a molar extinction coefficient of 6.00×10 4 M −1 cm −1. Fluorescence anisotropy measurements were performed on a Perkin-Elmer LS-50B luminescence spectrometer equipped with a thermostat accurate to ±0.1° C. as indicated previously (Wang, Y., Hamasaki, K., & Rando, R. R. (1997) Biochemistry 36, 768-779). The tracer solution was excited at 550 nm and monitored at 580 nm. The integration time was 5 s. For every point, 6 measurements were taken, and their average values were used for calculation. Measurements were carried out in a buffer solution containing 150 mM NaCl, 5 mM KCl, 1 mM CaCl2, 1 mM MgCl2, and 20 mM HEPES (pH 7.5). Prior to measurements, RNA constructs were renatured by incubating in binding buffer {150 mM NaCl, 5 mM KCl, 1 mM CaCl2, 1 mM MgCl2, and 20 mM HEPES (pH 7.5)} for 3 minutes at 90° C. followed by slow cooling to 25° C.
# (§5) Equation 1 was used for the determination of the dissociation constant (Kd) for the interactions between RNA or ribosome and CRP. A=A0+DA{(RNA)0+(CRP)0+Kd−({(RNA)0+(CRP)0+Kd}^2−4(RNA)0(CRP)0)½}/2 where A and A0 are the fluorescence anisotropy of CRP in the presence and absence of RNA, respectively, and DA is the difference between the fluorescence anisotropy of CRP in the presence of an extrapolated infinite concentration of RNA minus the fluorescence anisotropy in the absence of RNA. (RNA)0 and (CRP)0 are the initial concentrations of RNA and CRP, respectively.
# (§6) Equation 2 is used for the calculation of the KD values in the competition binding assay. (aminoglycoside)0={KD(A−−A)/Kd(A−A0)+1}{(RNA)0−Kd(A−A0)/(A−−A)−(CRP)0(A−A0)/(A−−A)} where KD is the dissociation constant between the RNA and the aminoglycosides; (aminoglycoside)0 is the initial concentration of the aminoglycosides; AL is anisotropy of completely bound tracer. Both Kd and KD were determined by non-linear curve fitting using the equations described above, and are presented as mean values of three independent measurements.
# The purification of yeast 80S ribosomes from S. cerevisiae strain YSB 758 was carried out according to the published procedure (Verschoor, A., Warner, J. R., Srivastava, S., Grassucci, R. A., & Frank, J. (1997) Nucl. Acid Res. 26, 655-661). S. cerevisiea YSB 758 were grown for 12 hrs at 30° C. in 2L of YPD medium, containing: 20 g bacto peptone, 20 g glucose, 10 g yeast extract and 0.15 g tryptophan per 1 L, pH 7.0. The cells were lysed by 5-10 cycles of 1 min vigorous shaking with glass beads with a vortex, followed by cooling on ice. Clarified cell extract (about 9 mL total, used in 6 portions in 1.5 mL aliqouts) was carefully loaded on top of 2 mL of a cushion, composed of 10% sucrose and 5% ammonium sulfate dissolved in buffer YR1 (20 mM HEPES pH=7.4, 16 mM magnesium chloride, 100 mM potassium chloride, 5 mM DTT, and 0.5 mM EDTA). The ribosomes were collected by centrifugation in Beckman TL100.3 rotor at 75000 rpm for 3 h. The supernatants were carefully discarded and ribosomes were collected in buffer YR1. […]
# 70S ribosome = test: Fluorescence anisotropy binding to 70S ribosomes; details: competition with CRP, E. coli ribosomes; read-out: Dissociation constant (KD) with 70S ribosome
# Description: as §3, §4, §5, §6
# The purification of E. coli (E600) 70S ribosomes was carried out according to the published procedure (Lazaro, E., van den Broek, L. A. G. M., Felix, A. S., Ottenheijm, H. C. J., Ballesta, J. P. G. (1991) Biochemistry 30, 9642-9648). E. coli MRE600 were grown for 12 h in 6L of LB medium (10 g trypton, 5 g yeast extract, 5 g NaCl per 1 L, pH 7.0) at 37° C. Crude ribosomes were precipitated from clarified supernatant by 4 h centrifugation at 25,000 rpm in Beckman SW 28 rotor at 4° C. The ribosome pellets were collected in 5 mL of buffer BR1, containing 10 mM HEPES, pH 7.5, 500 mM ammonium acetate, 100 mM magnesium chloride and 2.5 mM DTT. The ribosome suspension was centrifuged for 20 min at 15000 rpm to be clarified. The clarified sample was loaded over two layers of 20% and 40% sucrose in buffer BR1 and centrifuged for 18 hr at 19000 rpm in Beckman SW28 rotor at 4° C. […]
# E. coli (ATCC 25922) [5] = test: MIC, wild type E. coli; type: cell-based; details: growth inhibition greater than 90%
# Description: as §2
# E. coli (ATCC 25922) [6] = test: Bactericidal activity (bactericide index); type: cell-based; details: 3 h incubation, FIG. 8
# Description: The bactericidal activity of each antibiotic was investigated at concentrations of 0.5-4×MIC in medium E. coli (ATCC 25922) inoculum was added to 0.5 mL medium 2 to OD 600 ˜0.1 together with different antibiotic concentrations. The samples were incubated at 37° C. for 3 hrs, and the bacteria were collected by centrifugation. The bacterial pellets were washed with 0.5 mL of medium 2 and were plated on 1.5% medium 2 agar in 100 mm Petri dishes. The plates were incubated for 1-2 days at 37° C. and mean log 10 change in viable count was calculated and plotted vs drug concentration.
smiles,measurement,setting,value
NCC1OC(OC2C(N)CC(N)C(O)C2O)C(N)C(O)C1O [D-Neamine],IC50,[1],38 µM
same,"Antibiotic activity in disk assay, kanamycin/neomycin resistant E. coli",[2],selective resistance towards D-neamine; also recorded: essentially abolished
same,"Minimal inhibitory concentration (MIC), E. coli kan/neo resistant",[3],>6400 µM
same,"Minimal inhibitory concentration (MIC), P. aeruginosa",[4],500 µM
same,Kd,80S ribosome,1.14 ± 0.25 µM
same,Kd,70S ribosome,5.45 ± 0.68 µM
same,"Minimal inhibitory concentration (MIC), E. coli",E. coli (ATCC 25922) [5],150 µM
same,Concentration at which bactericidal effect begins,E. coli (ATCC 25922) [6],75 µM
